The assay concerns hypertensive rats (SHR). Description: Erectile responses (number of erections, intracavernous pressure) in anaesthetised hypertensive rats. The settings on record: for N animals with erections/N animals / Number of erections (mean ± sem): 30 min after infusion.
[1] abbreviates: Table 2, apomorphine 50 μg/kg alone.
[2] abbreviates: apomorphine 10 μg/kg s.c. + 5% glucose infusion.
The mark [3] stands for this setting: apomorphine 20 μg/kg s.c. + 5% glucose infusion.
[4] abbreviates: apomorphine 50 μg/kg s.c. + 5% glucose infusion.
[5] abbreviates: apomorphine 100 μg/kg s.c. + 5% glucose infusion.
Where [6] appears, read: apomorphine 250 μg/kg s.c. + 5% glucose infusion.
Where [7] appears, read: alfuzosine 3, 10 or 30 μg/kg alone (i.v. infusion).

Consider `CN1CCc2cccc3c2[C@H]1Cc1ccc(O)c(O)c1-3` [Apomorphine], for which, under setting [1], the AUC is recorded as 640 ± 216 mmHg · sec, the Duration of erection amounted to 105 ± 23 s, the “n animal with erections/n animal” value is listed as 9/9 and the number of erections turned out to be 2.6 ± 0.4. Under setting [1], the “ΔICP” value is given as 29 ± 7 mmHg. For the same compound, under setting [2], the AUC amounted to 0 mmHg · sec, the Duration is 0 s, the ΔICP was 0 mmHg and the “N animals with erections/N animals” value is 0/8. In addition, the “Number of erections (mean ± sem)” value under setting [2] is reported as 0. Moreover, under setting [3], the AUC amounted to 582 ± 172 mmHg · sec, the Duration was found to be 61 ± 7 s, the ΔICP came out at 41.4 ± 13.9 mmHg and the “N animals with erections/N animals” value was 5/10. For the same compound, the “Number of erections (mean ± sem)” value under setting [3] is given as 0.5000. In addition, under setting [4], the AUC is recorded as 640 ± 215 mmHg · sec, the Duration worked out at 105 ± 23 s, the ΔICP is reported as 29.3 ± 6.5 mmHg and the “N animals with erections/N animals” value was 9/9. Also, the “Number of erections (mean ± sem)” value under setting [4] is on record as 2.5556. Further, under setting [5], the AUC is recorded as 501 ± 193 mmHg · sec, the Duration is 71 ± 19 s, the ΔICP came out at 25.5 ± 8.2 mmHg and the “N animals with erections/N animals” value was 9/9. In addition, under setting [5], the “Number of erections (mean ± sem)” value worked out at 3.1111. Further, under setting [6], the AUC turned out to be 1073 ± 237 mmHg · sec, the Duration was 71 ± 19 s, the ΔICP was 58.6 ± 9.7 mmHg and the “N animals with erections/N animals” value is 6/6. Under setting [6], the “Number of erections (mean ± sem)” value was determined as 5.0000. Moreover, the erectile responses result (apomorphine 10-250 μg/kg s.c.) is reported as “induced concentration-dependent erectile responses”. For the same compound, for the setting “apomorphine s.c.”, the “first dose triggering erections in some animals in comparison to the control group” value was 20 µg/kg and the “first dose which induced at least one erectile event in all the animals” value was 50 µg/kg. The number of erections (text b79, apomorphine 50 μg/kg alone) is recorded as 2.6±0.4.

As for `COc1cc2nc(N(C)CCCNC(=O)C3CCCO3)nc(N)c2cc1OC` (stereo not shown) [Alfuzosine], under setting [7], the AUC was 0 mmHg · sec, the Duration of erection worked out at 0 s, the “n animal with erections/n animal” value is recorded as 0/6 and the number of erections came to 0. For the same compound, the “ΔICP” value under setting [7] is recorded as 0 mmHg. Besides, for the setting “alfuzosine 3 to 100 μg/kg i.v. after vehicle of apomorphine”, the “induction of erections per se” value is given as “Neither 5% glucose nor alfuzosine (3 to 100 μg/kg i.v.) was able to induce per se erections”.

The record behind these values is US20040063736A1, “Combination of active ingredients containing alfuzosine and apomorphine” (priority 2001, published 2004).
